Measured values taken from PubChem BioAssay (NCI).
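Briefly, cells in 96-well plates were exposed to five compound concentrations for 48 h, and endpoints were estimated by linear interpolation. At the GI50, growth is halved. TGI is the concentration that stops growth completely.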

Experiments:
Test in all cases: NCI anticancer screen, dose series, 48 h
COLO 205 colon = test system: COLO 205 colon
MOLT-4 leukemia = test system: MOLT-4 leukemia
NCI-H522 lung = test system: NCI-H522 lung
SF-268 CNS = test system: SF-268 CNS
SF-539 CNS = test system: SF-539 CNS
SK-MEL-2 melanoma = test system: SK-MEL-2 melanoma
SK-MEL-28 melanoma = test system: SK-MEL-28 melanoma
U251 CNS = test system: U251 CNS
MCF7 breast = test system: MCF7 breast

Row | Structure (SMILES) | TGI (COLO 205 colon) | TGI (MOLT-4 leukemia) | TGI (NCI-H522 lung) | TGI (SF-268 CNS) | TGI (SF-539 CNS) | TGI (SK-MEL-2 melanoma) | TGI (SK-MEL-28 melanoma) | TGI (U251 CNS) | GI50 (COLO 205 colon) | GI50 (MCF7 breast) | TGI (MCF7 breast) | GI50 (MOLT-4 leukemia) | GI50 (NCI-H522 lung) | GI50 (SF-268 CNS) | GI50 (SK-MEL-28 melanoma) | GI50 (U251 CNS)
1 | CC(=O)NNc1nc(C)c(C(=O)/C=C/c2ccc(/C=C/C(=O)c3sc(NNC(C)=O)nc3C)cc2)s1 | > 100 µM | > 100 µM | > 100 µM | > 100 µM | > 100 µM | > 100 µM | > 100 µM | > 100 µM |  |  |  |  |  |  |  | 
2 | NC(=O)C12CC3CC(CC(Br)(C3)C1)C2 |  | > 100 µM | > 100 µM | > 100 µM | > 100 µM |  | > 100 µM | > 100 µM |  |  |  |  |  |  |  | 
3 | COC(=O)/C(C#N)=C1\CCc2ccccc21 | > 100 µM | > 100 µM | > 100 µM | > 100 µM | > 100 µM | > 100 µM | > 100 µM |  |  |  |  |  |  |  |  | 
4 | CCCCc1c2c(nc3c1CCc1cc4cc5c(nc4nc1-3)-c1nc3c(c(CCCC)c1CC5)CCC/C3=C\c1ccccc1)/C(=C/c1ccccc1)CCC2 | > 100 µM | > 100 µM | > 100 µM | > 100 µM | > 100 µM |  | > 100 µM | > 100 µM |  |  |  |  |  |  |  | 
5 | Cc1ccc(NC(=O)CC2SC(N)=NC2=O)cc1C (configuration not stated) | > 100 µM | > 100 µM | > 100 µM | > 100 µM | > 100 µM | > 100 µM | > 100 µM | > 100 µM |  |  |  |  |  |  |  | 
6 | Nc1ncnc2c1nnn2C1C=C(CO)C(O)C1O (configuration not stated) | > 50.6 µM | > 100 µM | > 100 µM | > 100 µM | > 100 µM | > 100 µM | > 100 µM | > 100 µM |  |  |  |  |  |  |  | 
7 | Cc1cc(C)nc(NS(=O)(=O)c2ccc(NC(=O)c3cccn4c(=O)c5ccccc5nc34)cc2)n1 | > 100 µM | > 100 µM | 42.6 µM | > 100 µM | > 100 µM | > 100 µM | > 100 µM | > 100 µM |  |  |  |  |  |  |  | 
8 | Nc1ccc(C(=O)N/C(=C\c2cccc([N+](=O)[O-])c2)c2nc3ccc(Cl)cc3[nH]2)cc1 | > 100 µM | > 100 µM | > 100 µM | > 100 µM | > 100 µM | > 100 µM | > 100 µM | > 100 µM |  |  |  |  |  |  |  | 
9 | C/C(=C\Cc1cc(O)ccc1O)CCc1c(C)c(O)c(O)c(C=O)c1C | 34.4 µM | > 100 µM | 21.4 µM | 68.5 µM | 42.1 µM | 54.4 µM | 48.5 µM | 59.6 µM |  |  |  |  |  |  |  | 
10 | O=C(O)[C@@H](NS(=O)(=O)c1ccc2ccccc2c1)c1ccccc1 | > 100 µM | > 100 µM | > 100 µM | > 100 µM | > 100 µM | > 100 µM | > 100 µM | > 100 µM |  |  |  |  |  |  |  | 
11 | COC1(C)C(=O)N2C1N(C(=O)OCc1ccccc1)CC2(C)C (configuration not stated) | > 100 µM | > 100 µM |  | > 100 µM | > 100 µM | > 100 µM | > 100 µM | > 100 µM |  |  |  |  |  |  |  | 
12 | Cc1occ2c1C(=O)CC1C2[C@@H](O)CC2C(C)(C)CCC[C@]12C (some centres not stated) | > 100 µM | > 100 µM | > 100 µM | > 100 µM | > 100 µM |  | > 100 µM | > 100 µM |  |  |  |  |  |  |  | 
13 | COC/N=C(/N)NC#N | 39.2 µM | > 100 µM | > 100 µM | > 100 µM | > 100 µM | > 100 µM | > 100 µM | > 100 µM |  |  |  |  |  |  |  | 
14 | CCCCCCCCCCCCCP(=O)(NCC(N)=O)OCC (configuration not stated) | 34 µM |  |  | 38.4 µM | 31.3 µM | 30.3 µM | 32.3 µM | 33 µM |  |  |  |  |  |  |  | 
15 | CN1CCc2c1nc(-c1cccnc1)c1c2N(C)CC1 | > 100 µM | > 100 µM |  | > 100 µM | > 100 µM | > 100 µM |  | > 100 µM |  |  |  |  |  |  |  | 
16 | CC(=O)Nc1ccc(C(=O)N2N=C(C)/C(=C/c3cccc([N+](=O)[O-])c3)C2=O)cc1 | > 100 µM | > 100 µM | > 100 µM | > 100 µM | > 100 µM |  | > 100 µM |  |  |  |  |  |  |  |  | 
17 | COCCOCOC(C)(C)[C@H](CCOC(C)=O)O[Si](c1ccccc1)(c1ccccc1)C(C)(C)C | 13.7 µM | 19.1 µM | 29.4 µM | > 100 µM |  | 59.2 µM | > 100 µM | 30.6 µM |  |  |  |  |  |  |  | 
18 | C#CCSc1nc(N)c2ncn(C3OC(COP(=O)(O)O)C(O)C3O)c2n1 (configuration not stated) | > 239 µM | > 239 µM | > 239 µM | > 239 µM | > 239 µM | > 239 µM | > 239 µM |  |  |  |  |  |  |  |  | 
19 | COc1ccc(Oc2ccccc2NC(=O)CNC(=O)c2cccc3ccccc23)cc1 | 2.04 µM | > 25 µM | > 25 µM | > 25 µM |  |  | > 25 µM | > 25 µM | 0.64 µM | 0.259 µM | > 25 µM | 0.96 µM | 0.193 µM | 2.03 µM | 2.27 µM | 1.06 µM
20 | O=C(CCc1nc(=S)[nH][nH]1)Nc1cccc(C(F)(F)F)c1 | > 100 µM | > 100 µM | > 100 µM | > 100 µM | > 100 µM | > 100 µM | > 100 µM | > 100 µM |  |  |  |  |  |  |  | 
